What is called ΔTm is the change in melting temperature against a reference sample.

Test [1] concerns ALK tyrosine kinase receptor (Homo sapiens), Q9UM73 [C1156Y]. Description: Inhibition of ALK C1156Y mutant (unknown origin) assessed as residual activity at 1000 nM by KINOMEscan analysis relative to control.
For test [2], the system named is Mast/stem cell growth factor receptor Kit (Homo sapiens), P10721 [D816H]. Description: Inhibition of KIT D816H mutant (unknown origin) assessed as residual activity at 1000 nM by KINOMEscan analysis relative to control.
Test [3] addresses T1, Mitogen-activated protein kinase kinase kinase 5 (Homo sapiens) (UniProt Q99683).
T1 sequence (whole entry): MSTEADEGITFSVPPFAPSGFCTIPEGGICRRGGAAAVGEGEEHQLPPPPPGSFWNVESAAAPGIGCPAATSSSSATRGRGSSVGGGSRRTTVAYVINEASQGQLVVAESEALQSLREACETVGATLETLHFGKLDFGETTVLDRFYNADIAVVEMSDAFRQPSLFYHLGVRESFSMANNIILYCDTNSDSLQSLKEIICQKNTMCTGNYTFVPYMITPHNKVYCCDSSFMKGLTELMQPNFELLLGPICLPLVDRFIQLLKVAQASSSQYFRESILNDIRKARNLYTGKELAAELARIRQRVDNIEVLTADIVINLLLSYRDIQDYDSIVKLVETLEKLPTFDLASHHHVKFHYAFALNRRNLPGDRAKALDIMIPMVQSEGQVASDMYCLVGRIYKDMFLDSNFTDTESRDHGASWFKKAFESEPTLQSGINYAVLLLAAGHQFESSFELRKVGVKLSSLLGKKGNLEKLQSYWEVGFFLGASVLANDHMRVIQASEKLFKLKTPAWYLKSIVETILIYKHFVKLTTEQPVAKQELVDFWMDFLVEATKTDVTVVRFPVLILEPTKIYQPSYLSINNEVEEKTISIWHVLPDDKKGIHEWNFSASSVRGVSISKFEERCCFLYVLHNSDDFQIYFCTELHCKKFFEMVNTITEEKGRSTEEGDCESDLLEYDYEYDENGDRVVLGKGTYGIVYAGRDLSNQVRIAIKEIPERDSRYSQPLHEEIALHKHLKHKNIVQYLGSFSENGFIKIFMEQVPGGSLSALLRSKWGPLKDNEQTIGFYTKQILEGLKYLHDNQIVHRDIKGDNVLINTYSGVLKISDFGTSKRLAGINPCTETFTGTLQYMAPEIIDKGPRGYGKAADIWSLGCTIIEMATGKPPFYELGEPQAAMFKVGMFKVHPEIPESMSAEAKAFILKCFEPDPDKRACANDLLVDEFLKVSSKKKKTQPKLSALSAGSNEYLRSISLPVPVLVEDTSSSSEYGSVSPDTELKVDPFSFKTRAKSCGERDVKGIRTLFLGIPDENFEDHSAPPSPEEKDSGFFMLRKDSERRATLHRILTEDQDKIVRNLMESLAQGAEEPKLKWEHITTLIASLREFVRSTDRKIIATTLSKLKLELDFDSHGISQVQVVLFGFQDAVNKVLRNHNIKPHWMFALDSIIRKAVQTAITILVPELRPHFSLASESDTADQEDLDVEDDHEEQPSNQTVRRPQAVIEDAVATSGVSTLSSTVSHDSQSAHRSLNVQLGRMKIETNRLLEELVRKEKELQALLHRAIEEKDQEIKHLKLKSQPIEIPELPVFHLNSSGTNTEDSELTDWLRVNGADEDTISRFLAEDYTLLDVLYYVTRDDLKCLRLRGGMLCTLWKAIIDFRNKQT
The test is described as follows: Inhibition of ASK1 (unknown origin) assessed as residual activity at 1000 nM by KINOMEscan analysis relative to control.

Test [4] relates to Hepatocyte growth factor receptor (Homo sapiens), P08581 [Y1235D]. Description: Inhibition of MET Y1235D mutant (unknown origin) assessed as residual activity at 1000 nM by KINOMEscan analysis relative to control.
For test [5], the target named is Wee1-like protein kinase (Homo sapiens) (UniProt P30291). The test is described as follows: Inhibition of WEE1 (unknown origin) assessed as residual activity at 1000 nM by KINOMEscan analysis relative to control.
In test [6] the target is T2, Ephrin type-B receptor 1 (Homo sapiens) (UniProt P54762).
T2 sequence (whole entry): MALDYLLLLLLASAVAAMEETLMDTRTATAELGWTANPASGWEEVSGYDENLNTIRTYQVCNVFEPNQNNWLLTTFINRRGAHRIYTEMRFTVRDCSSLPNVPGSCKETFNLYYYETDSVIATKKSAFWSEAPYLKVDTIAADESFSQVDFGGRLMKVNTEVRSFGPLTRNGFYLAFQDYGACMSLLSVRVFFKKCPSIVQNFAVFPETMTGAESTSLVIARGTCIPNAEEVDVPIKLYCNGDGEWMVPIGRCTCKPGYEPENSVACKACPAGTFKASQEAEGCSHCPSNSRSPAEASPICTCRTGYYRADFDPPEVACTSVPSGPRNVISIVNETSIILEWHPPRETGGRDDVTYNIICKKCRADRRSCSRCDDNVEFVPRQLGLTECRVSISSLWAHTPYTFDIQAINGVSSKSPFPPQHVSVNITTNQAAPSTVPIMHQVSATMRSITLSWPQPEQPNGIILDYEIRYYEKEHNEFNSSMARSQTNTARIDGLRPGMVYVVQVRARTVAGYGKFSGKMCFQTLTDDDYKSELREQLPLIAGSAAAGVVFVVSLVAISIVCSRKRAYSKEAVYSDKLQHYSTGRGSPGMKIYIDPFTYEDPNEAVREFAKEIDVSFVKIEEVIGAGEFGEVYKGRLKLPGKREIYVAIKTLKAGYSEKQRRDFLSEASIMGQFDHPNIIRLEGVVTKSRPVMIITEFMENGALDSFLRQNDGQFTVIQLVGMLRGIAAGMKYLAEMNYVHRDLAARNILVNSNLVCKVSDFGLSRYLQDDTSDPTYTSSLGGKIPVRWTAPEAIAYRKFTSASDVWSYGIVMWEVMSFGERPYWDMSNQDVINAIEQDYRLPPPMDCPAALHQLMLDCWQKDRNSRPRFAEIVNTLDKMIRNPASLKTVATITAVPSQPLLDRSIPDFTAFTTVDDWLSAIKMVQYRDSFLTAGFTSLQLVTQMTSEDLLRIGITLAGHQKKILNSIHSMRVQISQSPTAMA
Description: Inhibition of EPHB1 (unknown origin) assessed as residual activity at 1000 nM by KINOMEscan analysis relative to control.

Test [7] has as its target GTPase KRas (Homo sapiens) (UniProt P01116). The test is described as follows: Stabilization of N-terminal His10-tagged wild-type recombinant human KRAS (1 to 169 residues) expressed in Escherichia coli assessed as change in melting temperature at 100 uM with heating from 25 to 85 degreeC by thermal shift assay.

`COc1cc2nc(C)nc(N[C@H](C)c3cccc(-c4cn[nH]c4)c3)c2cc1OC`: the Activity in test [1] was determined as 80%; in test [2], 88%; in test [3], 100%; in test [4], 78%; in test [5], 84%; in test [6], 77%.
`COc1cc2ncnc(N[C@H](C)c3cccc4ccccc34)c2cc1OC`: the Activity in test [1] was determined as 86%; in test [2], 97%; in test [3], 76%; in test [4], 100%; in test [5], 100%; in test [6], 100%. Moreover, the ΔTm in test [7] was -1.1 °C.
On to `CNCc1ccccc1-c1csc([C@@H](C)Nc2nc(C)nc3cc(OC)c(OC)cc23)c1` [BAY-293], for which, in test [7], the ΔTm was 0.23 °C.

The values above are taken from ChEMBL document CHEMBL5678818, “Discovery of potent SOS1 inhibitors that block RAS activation via disruption of the RAS-SOS1 interaction” (Proc Natl Acad Sci U S A, 2019).
